Experimental data: patent US5616563A, “Glutathione N-hydroxycarbamoyl thioesters and method of inhibiting neoplastic growth” (University of Maryland Baltimore Campus, priority 1994, dated 1997)

Columns and labels:
[1] = target: T1, yeast Glx I (Saccharomyces cerevisiae, UniProt P50107); assay: Inhibition of yeast glyoxalase I; type: biochemical
T1 construct: purchased Sigma Chem. Co
T1 sequence (P50107 1-326): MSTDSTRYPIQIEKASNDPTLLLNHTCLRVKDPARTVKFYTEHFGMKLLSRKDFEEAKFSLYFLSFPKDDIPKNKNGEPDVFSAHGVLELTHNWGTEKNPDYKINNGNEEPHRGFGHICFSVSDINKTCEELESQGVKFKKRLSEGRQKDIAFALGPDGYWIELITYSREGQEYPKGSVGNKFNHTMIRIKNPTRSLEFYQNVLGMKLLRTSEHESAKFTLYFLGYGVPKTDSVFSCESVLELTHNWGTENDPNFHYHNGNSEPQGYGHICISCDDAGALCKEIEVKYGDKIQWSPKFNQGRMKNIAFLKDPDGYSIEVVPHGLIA

[2] = target: T2, glyoxalase I (Saccharomyces cerevisiae, UniProt P50107); details: concentration of 50% inhibition of glyoxalase I; c = No inhibitory activity was detected; read-out: I50; cited from earlier work
T2 sequence (P50107 1-326): T1 sequence (P50107 1-326)

[3] = tested on: L1210 leukemia; details: concentration for 50% kill of the cell culture; cited from earlier work
[4] = tested on: KB cells; details: concentration for 50% kill of the cell culture; cited from earlier work
[5] = tested on: Human Leukemia 60 (HL60) cells; assay: Growth inhibition and kill of human leukemia 60 cells; type: cell-based; details: HL60 cells; text b533
Description: The observation that compounds 2 and 6(c) inhibit tumor cell growth, but were not strongly cytotoxic to tumor cells at the concentrations tested, prompted the synthesis of diethyl esters of compounds 6(a), 6(b), and 6(c). These derivatives were then tested with human leukemia cells (HL60 cells) grown in RPMI/fetal calf serum medium at 37° C.
^c Concentration for 50% cell kill.

[6] = tested on: normal human VA-2 fibroblasts; assay: Toxicity to normal human fibroblasts; type: cell-based; details: fibroblasts; text b533
[7] = tested on: CN(O)C(=O)SC[C@H](NC(=O)CC[C@H](N)C(=O)O)C(=O)NCC(=O)O; assay: purified protein, by the assay type; details: other: as substrate, HEPES buffer (100 mM, pH 7.4), 25° C.
Description: The standard errors for Vm and Km were obtained by analysis of the initial rate data using the HYPER program of Cleland.
^a HEPES buffer (100 mM, pH 7.4), 25° C.
^b Listed values are relative to Vm for SD-lactoylglutathione.
^c Inhibition constants obtained from using the enediol analogs as

In the case of `C[C@@H](O)C(=O)SC[C@H](NC(=O)CC[C@H](N)C(=O)O)C(=O)NCC(=O)O` [S-D-lactoylglutathione, reference compound], the Ki [1] is given as 2230 µM, the IC50 [2] is given as 77 µM and the “LD50 (L1210)” value [3] is given as 0.08 mM. The “LD50 (KB)” value [4] was 0.07 mM.

In the case of `N[C@@H](CCC(=O)N[C@@H](CSCc1ccc(Br)cc1)C(=O)NCC(=O)O)C(=O)O` [S-p-Bromobenzyl glutathione, reference compound], the LC50 [5] is reported as 50 µM and the LC50 [6] is reported as 50 µM.

With bovine liver glyoxalase II (Bos taurus) the Km [7] was 478 µM.
